Test results: patent publication US9827184B2, “Peelable transparent diamond nail-care coat” (LES FINS NETWORK TECHNOLOGY CO.,LTD., priority 2015, dated 2017)

How the values were obtained:
Test in all cases: MTT microplate growth inhibition (MIC50) in MH culture medium
Assay type in all cases: cell-based
Details in all cases: 96-well plate, 37° C., 24 h, OD 570 nm, unit not given, test concentrations given in μg·ML^−1
epidermophyton floccosum = system: epidermophyton floccosum
Experimental: (§1) Bacteria (trichophylon rubrum, trichophyton mentagrophytes and epidermophyton fioccosum) are suspended in an MH culture medium with a dispersion concentration of about 10^5 cfu·ML^−1, and bacterium solution is added onto a 96-well plate (100 μL of the bacterium solution is added in each well); and the culture medium is taken as blank control, DMSO is taken as negative control for replacing a test substance, and itraconazole (Xian-Janssen Pharmaceutical Co., Ltd.) is taken as positive control. […] The 96-well plate is placed in an incubator at 37° C. and cultured for 24 h, then 25 μL of PBS containing 4 mg of MTT per mL is added in each well and cultured for 4 h under the same condition, and 100 μL of SDS lysate (95 mL of tri-distilled water+10 g of SDS+5 mL of isopropanol+0.1 mL of concentrated hydrochloric acid) is added in each well and then cultured for 12 h. An OD value is measured by a microplate reader at 570 nm, and an inhibition percent is calculated as follows: [formula]

[1] = system: trichophyton mentagrophytes
Experimental: as §1

trichophyton rubrum = system: trichophyton rubrum
Experimental: as §1

SMILES	50% minimum inhibitory concentration (MIC50) for epidermophyton floccosum (epidermophyton floccosum)	50% minimum inhibitory concentration (MIC50) for trichophyton mentagrophytes [1]	50% minimum inhibitory concentration (MIC50) for trichophyton rubrum (trichophyton rubrum)
COc1ccc(-c2cc(=O)c3cc(O)c(OC)c4c3n2OC2OC(C)=C(O)C=C2C4)cc1 (stereo not drawn) [compound of formula I]	0.82	0.60	0.63
CCC(C)n1ncn(-c2ccc(N3CCN(c4ccc(OCC5COC(Cn6cncn6)(c6ccc(Cl)cc6Cl)O5)cc4)CC3)cc2)c1=O (stereo not drawn) [itraconazole]	0.65	0.70	0.63
